Test results reported in article PMC6325219, “Preclinical Characterization of NVR 3-778, a First-in-Class Capsid Assembly Modulator against Hepatitis B Virus” (Antimicrobial Agents and Chemotherapy, 2018).
Where “and” joins values, the source holds several entries; their conditions need not be identical. Identical values can stand only once.

Legend:
[1] = system: HBV isolates representing GT A to H; assay: Transient-transfection antiviral study, panel of HBV isolates GT A to H (summary statements); type: cell-based, hepatitis B virus; settings: EC50 values within this factor of each other
[2] = Hepatocyte stability, human hepatocytes; type: in vitro ADME; settings: 120 min incubation
Method: Following in vitro incubation for 120 min with human, mouse, or dog hepatocytes, >85% of the NVR 3-778 remained intact. […] The fewest number of metabolites was found following incubation with human hepatocytes, where 92% of the NVR 3-778 remained after a 120-min incubation.

plasma proteins = assay: Plasma protein binding by equilibrium dialysis, rat; type: in vitro ADME; settings: 2 µM
Text: The binding of NVR 3-778 to the plasma proteins of mouse, rat, dog, monkey, and human was investigated by equilibrium dialysis.

[3] = system: HBV core protein variant T109M; assay: microbe, parasite or virus in culture
Text: (§1) Plasmids containing HBV DNA with rtN236T, rtA181V, rtA181V/N236T, and rtL180M/M204V/N236T were generated using the GT B WT or rtL180M/M204V DNA-containing plasmids and site-directed mutagenesis (Agilent Technologies). A panel of nine different HBV core variants (cW102G, cW102R, cI105V, cI105L, cI105T, cT109S, cT109M, cT109I, and cY118F) was generated, also using the GT B WT DNA-containing plasmid and site-directed mutagenesis. The full-length genome from all plasmids was sequenced to confirm that only the intended nucleotide change(s) was present. Finally, HBV sequences from genotypes A (GenBank accession number AF305422), C (GenBank accession number AB033550), D (GenBank accession number V01460), E (GenBank accession number AB274971), F (GenBank accession number AB036912), G (GenBank accession number AF160501), and H (GenBank accession number AB375159) were gene synthesized as 1.1 times the genome length together with part of the CMV promoter at the 5′ end. The gene-synthesized piece was validated by sequencing and subcloned into the pCMV-HBV plasmid using the restriction sites SalI and NdeI (Genewiz, USA).
(§2) HepG2 cells were seeded in 96-well plates at a density of 20,000 cells/well and allowed to attach overnight at 37°C in 5% CO2. Cells were cotransfected with the HBV plasmids (100 ng/well) and a Gaussia expression plasmid (10 ng/well) (Thermo Scientific) using the Lipofectamine LTX Plus transfection reagent (Life Technologies). Transfection mixtures were removed after overnight incubation, and cells were treated with serially diluted NVR 3-778 at a final dimethyl sulfoxide (DMSO) concentration of 0.5%. After 3 days of incubation with the compound, the supernatants were collected and secreted Gaussia luciferase was measured using a Gaussia Flash luciferase assay kit (Thermo Scientific). Cells were lysed with 0.33% NP-40 (Thermo Scientific), and the cytoplasmic fractions were treated with 2 units of Turbo DNase (Invitrogen) and 10 units of S7 nuclease (Roche) in CutSmart buffer (New England Biolabs) containing 25 µM CaCl2 (G-Biosciences) at 37°C for 60 min, followed by inactivation of the enzymes at 75°C for 15 min. Samples were diluted into lysis buffer (Affymetrix) containing 2.5 µg proteinase K (Affymetrix) at 50°C for 40 min. Intracellular encapsidated HBV DNA was denatured for 30 min at 25°C in 0.2 M NaOH (Sigma) and incubated with HBV DNA probes designed to hybridize to the minus-strand HBV DNA (Affymetrix). The denatured DNA was subsequently detected using a QuantiGene assay kit, according to the branched DNA (bDNA) assay recommended by the manufacturer (Affymetrix).
(§3) To determine percent inhibition, the mean background signal from wells containing only culture medium was subtracted from the signal for all other samples, and percent inhibition at each compound concentration was calculated by normalization to the signals for HepG2.2.15 cells treated with 0.5% DMSO. […] Both CalcuSyn and MacSynergy II (Ann Arbor, MI) software were used to evaluate the effect of compound combinations ([27]). After data analysis at the 95% confidence level, values of synergy or antagonism of <25 µM^2% were defined as insignificant, those between 25 and 50 µM^2% were defined as minor, those between 50 and 100 µM^2% were defined as moderate, and those of >100 µM^2% were defined as strong.

[4] = system: HBV core protein variant I105T; assay: microbe, parasite or virus in culture
Text: as §1, §2, §3

[5] = system: HBV core protein variant T109I; assay: microbe, parasite or virus in culture
Text: as §1, §2, §3

[6] = system: HBV core protein variant Y118F; assay: microbe, parasite or virus in culture
Text: as §1, §2, §3

[7] = molecular target: T1, recombinant HBV core protein (Hepatitis B virus genotype D subtype ayw, UniProt P03146); assay: Capsid assembly of recombinant core protein, electron microscopy; type: biochemical; settings: 1.2:1 compound-to-core monomer ratio, 0.15 M NaCl, room temperature overnight
T1 construct: Electron microscopy with HBV capsid formed from recombinant HBV core protein was performed as described previously ([5])
Method: FIG 1 NVR 3-778 targets HBV core protein and inhibits viral replication. (A) Chemical structure of NVR 3-778. (B) Purified recombinant HBV core protein in the absence or presence of NVR 3-778. NVR 3-778 was incubated with recombinant core protein (1.2:1 compound-to-core monomer ratio) in buffer containing 0.15 M NaCl at room temperature overnight prior to staining and imaging by electron microscopy. (C, D) The effect of NVR 3-778 on intracellular rcDNA, extracellular HBV DNA, or cell viability (C) or on intracellular encapsidated pgRNA- or extracellular HBV RNA-containing particles (D) was determined upon treating HepG2.2.15 cells with increasing concentrations of NVR 3-778. (E, F) The effect of TFV on intracellular rcDNA, extracellular HBV DNA, or cell viability (E) or on intracellular encapsidated pgRNA- or extracellular HBV RNA-containing particles (F) was determined upon treating HepG2.2.15 cells with increasing concentrations of TFV. Secreted HBV DNA and secreted HBV RNA levels were determined from the supernatant of HepG2.2.15 cells. Intracellular encapsidated rcDNA and pgRNA levels were determined upon NP-40 lysis of cells and by using S7 nuclease to remove nonencapsidated nucleic acids. Cell viability was determined by measuring ATP levels using the CellTiter-Glo assay. […]

[8] = ratio of mean EC50 for core variant over wild-type HBV

Structure (SMILES): O=C(Nc1cc(F)c(F)c(F)c1)c1ccc(F)c(S(=O)(=O)N2CCC(O)CC2)c1 [NVR 3-778]
- Spread of EC50 values against HBV DNA replication across GT A to H isolates [1]: ≤ 3 fold
- NVR 3-778 remaining intact [2]: > 85% and 92%
- Mean percent binding to plasma proteins (plasma proteins): approximately 91%
- EC50 ([3]; Hepatitis B virus, HepG2, read-out: EC50, core variant T109M): 280 ± 130 nM
- EC50 FC, T109M [3, 8]: 1.2 fold
- EC50 ([4]; Hepatitis B virus, HepG2, read-out: EC50, core variant I105T): 1500 ± 300 nM
- EC50 FC, I105T [4, 8]: 6.5 fold
- EC50 ([5]; Hepatitis B virus, HepG2, read-out: EC50, core variant T109I): 150 ± 61 nM
- EC50 FC, T109I [5, 8]: 0.65 fold
- EC50 ([6]; Hepatitis B virus, HepG2, read-out: EC50, core variant Y118F): 1700 ± 700 nM
- EC50 FC, Y118F [6, 8]: 7.4 fold
- Effect on assembly of purified recombinant core protein [7]: effectively induced the formation of capsid-like particles
